Results on five molecules are retold here after patent US20180028627A1, “TREATMENT VACCINE FOR PROSTATE CANCER” (Bioventures, LLC, priority 2015, published 2018).

≈ marks a conversion by molar mass, not a printed value. Residues, ends and D or L forms follow the SMILES beside them. Where only a bound is given, the exact number is not on record here.

The nature of data set [1]: PSA peptide solubility testing (turbidity). Particulars: for Solubility, peptides tested individually: pH 4 or pH 5 with succinate (10 mM) or glutamate (10 mM).
Data set [2] relates to CD3 T-cells co-cultured with autologous LCs. The data set can be described thus: T-cell proliferation induced by treated LCs, alamarBlue. The format is cell-based, human. In general terms: The colour change of resazurin is a common sign of viable cells or microbes.

For `CC[C@H](C)[C@H](NC(=O)[C@H](CS)NC(=O)[C@H](Cc1c[nH]cn1)NC(=O)[C@H](C)NC(=O)[C@H](C)NC(=O)[C@@H](NC(=O)[C@H](CC(C)C)NC(=O)[C@@H](NC(=O)[C@H](Cc1c[nH]c2ccccc12)NC(=O)[C@H](CCC(N)=O)NC(=O)[C@@H]1CCCN1C(=O)[C@H](Cc1c[nH]cn1)NC(=O)[C@@H](NC(=O)[C@H](CC(C)C)NC(=O)[C@@H](NC(=O)CNC(=O)CNC(=O)[C@H](CS)NC(=O)[C@@H](NC(=O)[C@H](C)NC(=O)[C@H](CCCNC(=N)N)NC(=O)CNC(=O)[C@H](CCCNC(=N)N)NC(=O)[C@H](CO)NC(=O)[C@H](C)NC(=O)[C@@H](NC(=O)[C@H](CC(C)C)NC(C)=O)C(C)C)C(C)C)C(C)C)C(C)C)C(C)C)[C@@H](C)O)C(=O)N[C@@H](CCCNC(=N)N)C(=O)N[C@@H](CC(N)=O)C(=O)N[C@@H](CCCCN)C(=O)N[C@@H](CO)C(=O)N[C@H](C(=O)N[C@H](C(=O)N[C@@H](CC(C)C)C(=O)N[C@@H](CC(C)C)C(=O)NCC(=O)N[C@@H](CCCNC(=N)N)C(=O)N[C@@H](Cc1c[nH]cn1)C(=O)N[C@@H](CO)C(=O)N[C@@H](CC(C)C)C(N)=O)[C@@H](C)CC)C(C)C` [PSA 41-80, LVASRGRAVCGGVLVHPQWVLTAAHCIRNKSVILLGRHSL] (Ac-LVASRGRAVCGGVLVHPQWVLTAAHCIRNKSVILLGRHSL-NH2; N-terminus and C-terminus assumed), the “Solubility, peptides tested individually” value in data set [1] was “soluble in both buffers”.
Same read-out and setting: to `CSCC[C@H](NC(=O)[C@H](CC(=O)O)NC(=O)[C@H](Cc1ccc(O)cc1)NC(=O)[C@H](CC(C)C)NC(=O)[C@@H]1CCCN1C(=O)[C@H](Cc1c[nH]cn1)NC(=O)[C@@H]1CCCN1C(=O)[C@H](Cc1ccccc1)NC(=O)[C@H](CO)NC(=O)[C@H](Cc1c[nH]cn1)NC(=O)[C@H](CO)NC(=O)[C@@H](NC(=O)[C@H](CCC(N)=O)NC(=O)[C@H](Cc1ccccc1)NC(=O)[C@@H](NC(=O)[C@H](CCC(N)=O)NC(=O)CNC(=O)[C@@H](NC(=O)[C@H](CC(=O)O)NC(=O)[C@H](CCC(=O)O)NC(=O)[C@@H]1CCCN1C(=O)[C@H](Cc1c[nH]cn1)NC(=O)[C@H](Cc1ccccc1)NC(C)=O)[C@@H](C)O)C(C)C)C(C)C)C(=O)N[C@@H](CO)C(=O)N[C@@H](CC(C)C)C(=O)N[C@@H](CC(C)C)C(=O)N[C@@H](CCCCN)C(=O)N[C@@H](CC(N)=O)C(=O)N[C@@H](CCCNC(=N)N)C(=O)N[C@@H](Cc1ccccc1)C(=O)N[C@@H](CC(C)C)C(=O)N[C@@H](CCCNC(=N)N)C(=O)N1CCC[C@H]1C(=O)NCC(=O)N[C@@H](CC(=O)O)C(=O)N[C@@H](CC(=O)O)C(=O)N[C@@H](CO)C(=O)N[C@@H](CO)C(=O)N[C@@H](Cc1c[nH]cn1)C(=O)N[C@@H](CC(=O)O)C(N)=O` [PSA 81-120, FHPEDTGQVFQVSHSFPHPLYDMSLLKNRFLRPGDDSSHD] (Ac-FHPEDTGQVFQVSHSFPHPLYDMSLLKNRFLRPGDDSSHD-NH2; N-terminus and C-terminus assumed) belongs “soluble in both buffers”.
With tetanus toxoid, the T-cell proliferation result in data set [2] (over media, 7 days co-culture of T cells with autologous LCs) is reported as “no significant increase over media”. Also, the “Measurable proliferation, increased fluorescence” value in data set [2] (subjects 2 and 5) is reported as not below 5000.
As for `CC[C@H](C)[C@H](NC(=O)[C@H](Cc1c[nH]c2ccccc12)NC(=O)[C@H](CCCCN)NC(=O)[C@H](CCCNC(=N)N)NC(=O)[C@H](Cc1ccc(O)cc1)NC(=O)[C@H](Cc1c[nH]cn1)NC(=O)[C@@H](NC(=O)[C@@H](NC(=O)[C@H](CCCCN)NC(=O)[C@@H](NC(=O)[C@H](Cc1ccc(O)cc1)NC(=O)[C@H](CC(C)C)NC(=O)[C@H](CO)NC(C)=O)[C@@H](C)O)C(C)C)C(C)C)C(=O)N[C@@H](CCCCN)C(=O)N[C@@H](CC(=O)O)C(=O)N[C@H](C(=O)N[C@H](C(=O)N[C@H](C(=O)N[C@@H](C)C(=O)N[C@@H](CC(N)=O)C(=O)N1CCC[C@H]1C(N)=O)C(C)C)[C@@H](C)CC)[C@@H](C)O` [PSA 241-261, SLYTKVVHYR KWIKDTIVAN P] (Ac-SLYTKVVHYRKWIKDTIVANP-NH2; N-terminus and C-terminus assumed), in data set [1], the “Solubility, peptides tested individually” value is “soluble in both buffers”.
`CC[C@H](C)[C@H](NC(=O)[C@H](Cc1c[nH]c2ccccc12)NC(=O)[C@@H](NC(=O)[C@@H](NC(=O)[C@H](CO)NC(=O)[C@H](CC(C)C)NC(=O)[C@@H](NC(=O)[C@H](CC(C)C)NC(=O)[C@H](Cc1ccccc1)NC(=O)[C@@H](NC(=O)[C@@H](NC(=O)[C@@H]1CCCN1C(=O)[C@@H](NC(=O)[C@H](Cc1c[nH]c2ccccc12)NC(=O)[C@H](CCSC)NC(C)=O)C(C)C)C(C)C)C(C)C)[C@@H](C)O)C(C)C)[C@@H](C)O)C(=O)NCC(=O)N[C@@H](C)C(=O)N[C@@H](C)C(=O)N1CCC[C@H]1C(=O)N[C@@H](CC(C)C)C(=O)N[C@H](C(=O)N[C@@H](CC(C)C)C(=O)N[C@@H](CO)C(=O)N[C@@H](CCCNC(=N)N)C(=O)N[C@H](C(=O)N[C@H](C(=O)NCC(=O)NCC(=O)N[C@@H](Cc1c[nH]c2ccccc12)C(=O)N[C@@H](CCC(=O)O)C(=O)N[C@@H](CS)C(=O)N[C@@H](CCC(=O)O)C(=O)N[C@@H](CCCCN)C(=O)N[C@@H](Cc1c[nH]cn1)C(=O)N[C@@H](CO)C(=O)N[C@@H](CCC(N)=O)C(=O)N1CCC[C@H]1C(=O)N[C@@H](Cc1c[nH]c2ccccc12)C(=O)N[C@@H](CCC(N)=O)C(=O)N[C@H](C(N)=O)C(C)C)C(C)C)[C@@H](C)CC)[C@@H](C)CC` [PSA 1-40, MWVPVVFLTLSVTWIGAAPLILSRIVGGWECEKHSQPWQV] (Ac-MWVPVVFLTLSVTWIGAAPLILSRIVGGWECEKHSQPWQV-NH2; N-terminus and C-terminus assumed): the Solubility (usually the dissolved amount per volume that the medium holds) is “remained insoluble” in data set [1] (after dilution from 20 mg/ml to 5 mg/ml, 10 mM succinate, pH5.0 with 5% glycine); “insoluble” in data set [1] (at 20 mg/ml in 10 mM succinate, pH5.0 with 5% glycine); “solubility was enhanced” in data set [1] (in the presence of other PSA peptides); 5500 µg/mL (≈ 1200 µM) in data set [1] (pH 5). Moreover, the “Solubility, peptides tested individually” value in data set [1] is “All except PSA 1-40 were soluble in both buffers”.
